Assay results as given in patent publication US7572436B1, “Thionin as an antineoplastic and immunostimulant” (priority 2000, dated 2009).
“And” between values parts separate entries of the source, which are not always exact repeats. Equal values may be shown once. Read-outs that look alike come from different tables or passages of the source. Where no end group is shown, it is not given here.

How the values were obtained:
IL-2 = test: ELISA of IL-2 production by splenocytes; type: cell-based; details: Balb C murine spleen cells, 0.05 μg/ml PT, 48 hours
Protocol: Identical plates are set up for an immunoassay and a mitogen assay. Mouse splenocytes and immuno-stimulating drugs are plated in duplicate wells (immunoassay) and triplicate wells (mitogen assay) in 96-well microplates as described above. […] At the end of the activation/proliferation period, the two identical plates are harvested as an immunoassay for cytokines or harvested as a mitogen assay (to which ^3H-thymidine has been added approximately 16-18 hours earlier).
Immunoassay kits used to detect IL-1β, IL-2, and IL-12 were the murine Quantikine M™ kits produced by R&D Systems (Minneapolis, Minn.). The general procedure is the same for all interleukin cytokines, and is described in the instructions provided by the manufacturer. […]
One hundred microliters of Substrate Solution are added to each well and incubated 30 minutes at room temperature. […] The plate is read for absorbence at 450 nm and at 540 nm for background readings.
To calculate the results, the duplicate readings for each pair of standard, control, and test samples are averaged and the average background optical density readings are subtracted. […] Picograms of cytokine are determined from the standard curve. Mitogenic activity determined from the cpm of ^3H-thymidine is compared to the concentrations of cytokine in the experimental samples in the corresponding immunoassay. […]

[1] = test system: murine Balb/C splenocytes; test: Binding of ^125I-labeled PT to mouse spleen cells; details: for Kd: ^125I-PT
Text: Splenocytes are isolated from the spleens of selected mice (as described herein), treated to remove red cells, resuspended in PBS after washing, and counted using Trypan Blue exclusion. The average yield of spleen cells (splenocytes) from one spleen is 1−1.5×10^8 cells. A desired concentration of cells per sample tube in the binding assay is more than 5×10^6 cells/ml.
The protocol for the binding assay has been previously described (Vernon and Rogers, Toxicon 30:711-721, 1992). Reactions were carried out in a total volume of 400 μl in each microcentrifuge tube (160 μl PBS with ^125I-labeled PT at varying concentrations with 240 μl of spleen cell suspensions).
A total of 10^7 spleen cells were placed in each of the reaction microfuge tubes, and allowed to equilibrate at room temperature for five minutes. To each tube was added radiolabeled thionin (e.g., ^125I-PT) in amounts from 0.1 to 20 μg/ml. The radiolabeled PT used in the experiments contained approximately 10^6 counts/minute (0.3 μCi) per μg PT. The suspension was incubated at room temperature for 10 minutes, then placed on ice for an additional 10 minutes. The tubes were then centrifuged to pellet the cells.
The radioactivity in the supernatant fluid was determined from an aliquot removed from the tube. The plastic pipette tip used to transfer the aliquot was also put in the vial and counted in a gamma ray counter along with the transferred aliquot of the supernatant fluid, since this tip may absorb PT from the aliquot during transfer. The radioactivity amount determined represents the “free” PT, not bound to a cell.
After removal of the entire supernatant, the sedimented cells were washed twice in PBS, and the entire final washed suspension of cells was transferred to a vial for radioactivity counting. As with measurement of radioactivity in the supernatant, the pipette tip used to transfer the cell sample was added to the vial to include any PT that might be bound to the plastic tip. This measures the total “bound” PT.
Non-specific binding was determined in the presence of a 100-fold excess of non-radioactive iodinated PT. The binding data reported were obtained by subtracting the non-specific from the total binding. Triplicate assays were performed for each concentration of PT employed.

**Q.** Which “stimulation of production of IL-2” value (IL-2) does the source give for “Pyrularia thionin (KSCCRNTWARNCYNVCRLPGTISREICAKKCDCKIISGTTCPSDYPK; ends and bridges not checked; also: labeled with 125I) [PT]” here?
**A.** The value was “not conclusive”.

**Q.** And the Kd ([1]; PT up to 1 μg/ml, read-out: dissociation constant, high affinity binding site)?
**A.** The Kd was 65 nM and ~65 nM.

**Q.** What about the Kd ([1]; PT up to 20 μg/ml, read-out: dissociation constant, low affinity binding site) of the same substance?
**A.** The Kd was 1600 nM and ~1600 nM.

**Q.** And the “number of sites per cell, high affinity site” value ([1]; murine spleen cells)?
**A.** Its value is 1.4×10^5.

**Q.** And the “number of sites per cell, low affinity site” value ([1]; murine spleen cells)?
**A.** Its value is 1×10^6.
